This is an account of results in article PMC7287649, “Hypoxia-Activated Prodrug Derivatives of Carbonic Anhydrase Inhibitors in Benzenesulfonamide Series: Synthesis and Biological Evaluation” (Molecules, 2020).

Several values for one entry are separate records, joined by “and”; a condition that tells them apart may be missing. Equal entries are not always repeated. Where two headings read alike, the source gives them in different places.

Series [1] concerns the target hCA II (Homo sapiens, UniProt P00918). The series can be described thus: stopped flow CO2 hydrase assay, hCA II.
Description: (§7) An Sx.18Mv-R Applied Photophysics (Oxford, UK) stopped-flow instrument was used for assaying the CA catalyzed CO2 hydration activity. […] In particular, CO2 was bubbled in distilled deionized water for 30 min so that the water was saturated (the concentration at a specific temperature is known from literature). In addition, a CO2 assay kit (from Merck, Darmstadt, Germany) was used to measure the concentration in variously diluted solutions obtained from the saturated one (which was kept at the same temperature and a constant bubbling during the experiments). […] The uncatalyzed rates were determined in the same manner and subtracted from the total observed rates. Stock solutions of inhibitor (0.1 mM) were prepared in distilled deionized water and dilutions up to 0.01 nM were done thereafter with distilled deionized water. Inhibitor and enzyme solutions were pre-incubated together for 15 min–2 h (or longer, i.e., 4–6 h) at room temperature (at 4 °C for the incubation periods longer than 15 min) prior to assay, in order to allow for the formation of the EI complex. The inhibition constants were obtained by non-linear least-squares methods using PRISM 3 and the Cheng–Prusoff equation, as reported earlier [38, 39], and represent the mean from at least three different determinations. hCA I was purchased by Merck (Darmstadt, Germany) and used without further purification, whereas all the other hCA isoforms were recombinant ones obtained in-house as reported earlier [40].
The target in series [2] is hCA IX (Homo sapiens, UniProt Q16790). Put plainly: stopped flow CO2 hydrase assay, hCA IX. To be noted: for Selectivity Ratio KI hCA II/KI hCA IX: hCA II over hCA IX.
Description: as §7
The test system of series [3] is HCT116 cells. The series can be described thus: alamarBlue cell viability assay, HCT116. The note with it: for IC50: Homo sapiens, HCT-116, 2 h exposure, 72 h regrowth. The format is cell-based, human. On the procedure: (§1) Human colorectal HCT116 and HT29 carcinoma cells were cultured in Dulbecco’s Modified Eagle Medium (DMEM, Lonza) supplemented with 10% fetal bovine serum and 1% PenStrep. Cells were exposed to anoxic conditions for 24 h in a hypoxic chamber (MACS VA500 microaerophilic workstation, Don Whitley Scientific, Bingley, UK) with an atmosphere consisting of ≤0.02% O2, 5% CO2 and residual N2. Normoxic cells were grown in regular incubators with 21% O2, 5% CO2 at 37 °C.
(§2) The cytotoxic efficacy of the bio-reducible derivatives was determined based on cell viability assays using alamarBlue® (Invitrogen). In short, HT29 and HCT116 were seeded in 96-well plates and allowed to attach overnight. On the following day, the plates were exposed to normoxia or anoxia and medium was replaced with pre-incubated normoxic or anoxic DMEM. Compounds were dissolved in DMSO (0.5%, Sigma-Aldrich) and final concentrations were made with pre-incubated anoxic or normoxic DMEM and added to the wells after 24 h of exposure. Cells were exposed to compounds for a total of 2 h, after which the medium was washed off and replaced with fresh medium. Cells were allowed to grow for an additional 72 h under normoxic conditions prior to measurement. Cells were incubated with alamarBlue® for 2 h during normoxic conditions, which corresponds with their metabolic function, a measure for cell viability. Fluorescence was measured using plate reader (FLUOstar Omega, BMG LABTECH, Ortenberg, Germany) using a fluorescence excitation wavelength of 540–580 nm.
(§3) GraphPad Prism (version 5.03, GraphPad Software, San Diego, CA, USA) was used for all statistical analyses. For the cytotoxic compounds, IC50 values were estimated with the curve of the log (inhibitor) vs. normalized response (Variable slope).

Series [4] has as its system HT29 cells. The series can be described thus: alamarBlue cell viability assay, HT29. It is filed as cell-based, human. To be noted: for IC50: Homo sapiens, HT-29, 2 h exposure, 72 h regrowth. The procedure:
as §1, §2, §3
A general note: The colour change of resazurin is a common sign of viable cells or microbes.

Series [5] has as its target hCA I (Homo sapiens, UniProt P00915). The series can be described thus: stopped flow CO2 hydrase assay, hCA I.
Description: as §7
Series [6] deals with zebrafish larvae. The series can be described thus: phenotypic analysis of zebrafish larvae. It is filed as in vivo. The note with it: for adverse effects on observable phenotypic parameters of the larvae: 20 μM–2 mM, 5 days post exposure; for phenotypic defects: zebrafish larvae, at lower concentrations compared to 1b. On the procedure:
(§4) The hypoxia-activated prodrugs were screened for their toxicity using 24-h post-fertilization zebrafish embryos as described earlier. The compounds were either dissolved in Embryonic medium (5.0 mM NaCl, 0.17 mM KCl, 0.33 mM CaCl2, 0.33 mM MgSO4, and 0.1% w/v Methylene Blue (Sigma-Aldrich, Darmstadt, Germany) or in dimethyl sulfoxide (DMSO) (Sigma-Aldrich, St. Louis, MO, USA) to prepare 100 mM stock solutions. Before the start of each experiment, the series of dilutions were made from the above stock in the embryonic medium.
(§5) The wild-type adult zebrafish (AB strains) were maintained at 28.5 °C in an incubator [35]. In each breeding tank, about embryos 3–5 pairs of male and female fish were set up overnight for collecting the embryos. The following morning, 1–2-h post-fertilization (hpf) embryos were collected in a sieve and rinsed with embryonic medium and kept the collected embryos in an incubator at 28.5 °C overnight. The toxicity evaluation studies of the compounds were performed using the fish that were 24-hpf. All the zebrafish experiments were performed at the zebrafish core facility, Tampere University, Finland, and according to the protocol used in our laboratory.
After exposure to the prodrugs, we evaluated the effects of these compound on the zebrafish larvae by analyzing the following eight phenotypic parameters: (1) mortality, (2) hatching (3) edema (4) swimming pattern, (5) yolk sack utilization, (6) heartbeat, (7) body shape, and (8) swim bladder development. The images of the developing larvae were taken using a Lumar V1.12 fluorescence microscope (Carl Zeiss MicroImaging GmbH, Göttingen, Germany) attached to a camera with a 1.5 lens (Carl Zeiss MicroImaging GmbH, Göttingen, Germany). The images were analyzed with AxioVision software versions 4.7 and 4.8 as described in our standard protocol for the assessment of the toxicity and safety of chemical compounds.

The nature of series [7]: zebrafish embryo lethality (LC50). It is filed as in vivo. The note with it: AB, zebrafish, in vivo, zebrafish embryos from 24 hpf, end of 5 days of exposure. The procedure: as §4, §5
(§6) The LC50 values for all the three prodrugs were determined using 24-hpf embryos using […] different concentrations for each compound. We used a minimum of 30 zebrafish larvae for each concentration of the compound [28, 30, 36, 42]. The 24-hpf larvae were exposed to different concentrations of the inhibitors that ranged from 20 μM to […]. A dose response curve (DRC) was calculated using the DRM (model fitting function) of the DRC R package. The control group constituted an equal number of larvae not treated with any compound and the larvae that were treated with 1% DMSO. Toxicological evaluation studies were performed in 24-well plates (Corning V R Costar V R cell culture plates). In each well, we placed 1–2 24-hpf embryos in 1 mL of embryonic medium containing a diluted inhibitor. For control groups, 1% DMSO diluted in either embryonic medium or embryonic medium with no chemical compound. A minimum of three sets of experiments were carried out for each prodrug. The mortality of the larvae was checked every 24 h until 5 days after exposure to the prodrugs.

Series [8] relates to zebrafish embryos. The series can be described thus: zebrafish embryo lethality (LC50). It is filed as in vivo. To be noted: 500 μM. The procedure:
as §4, §5, §6

The subject of series [9] is zebrafish larvae. The note with it: 100 μM; cited from earlier work.
[10] abbreviates: HCT116, anoxia, read-out: IC50A.
[11] abbreviates: HCT116, normoxia, read-out: IC50N.
Setting [12] is: HT29, normoxia, read-out: IC50N.
Where [13] appears, read: KI hCA I, mean from 3 different assays.

hCA I, sequence (P00915 whole entry): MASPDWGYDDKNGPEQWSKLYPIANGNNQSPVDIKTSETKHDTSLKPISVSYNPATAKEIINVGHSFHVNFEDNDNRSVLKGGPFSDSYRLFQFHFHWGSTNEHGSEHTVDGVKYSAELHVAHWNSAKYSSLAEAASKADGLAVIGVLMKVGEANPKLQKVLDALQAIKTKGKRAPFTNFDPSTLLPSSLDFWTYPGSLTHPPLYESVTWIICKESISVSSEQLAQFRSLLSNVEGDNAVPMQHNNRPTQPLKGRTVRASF

As to `Cc1ncc([N+](=O)[O-])n1CCOC(=O)NCCc1ccc(S(N)(=O)=O)cc1` [Compound 2b, 2-(2-methyl-5-nitro-1H-imidazol-1-yl) ethyl (4-sulfamoylphenethyl) carbamate], the Ki (commonly a measure of affinity in units of concentration, obtained from inhibition or displacement) in [1] was determined as 0.0043 µM; in series [2], 0.0121 µM; in [5] (setting [13]), 0.0037 µM. Moreover, the “Selectivity Ratio KI hCA II/KI hCA IX” value in series [2] came to 0.35. Further, the IC50 in [3] (setting [10]) was > 500 µM; in series [3] (setting [11]), > 500 µM; in series [4] (HT29, anoxia, read-out: IC50A), > 500 µM; in [4] (setting [12]), > 500 µM.

As for `Cc1ncc([N+](=O)[O-])n1CCOC(=O)NCc1ccc(S(N)(=O)=O)cc1` [Compound 2c, 2-(2-methyl-5-nitro-1H-imidazol-1-yl) ethyl (4-sulfamoylbenzyl) carbamate], the Ki is 0.004 µM in series [1], 0.0141 µM in [2] and 0.0023 µM in series [5] (setting [13]). In addition, in series [2], the “Selectivity Ratio KI hCA II/KI hCA IX” value is given as 0.28. In addition, the IC50 was > 500 µM in series [3] (setting [10]); > 500 µM in series [3] (setting [11]); > 500 µM in [4] (HT29, anoxia, read-out: IC50A); > 500 µM in [4] (setting [12]).

As to `NS(=O)(=O)c1ccc(CCNC(=O)OCCNC(=O)c2cc([N+](=O)[O-])ccc2N(CCCl)CCCl)cc1` [Compound 3b, 2-(2-(bis(2-chloroethyl)amino)-5-nitrobenzamido) ethyl (4-sulfamoylphenethyl) carbamate], the figures for the Ki in series [1], in [2] and in series [5] (setting [13]) were 0.0031 µM, 0.0323 µM and 0.083 µM, respectively. For the same molecule, the “Selectivity Ratio KI hCA II/KI hCA IX” value in series [2] was 0.09. Moreover, the “HCR (IC50N/IC50A)” value in series [3] (HCT116, hypoxia selectivity cytotoxicity ratio) was 2.7 and 2.74. In addition, the IC50 in series [3] (setting [10]) is 97.3 µM; in series [3] (setting [11]) it was 267 µM; in [4] (HT29, anoxia, read-out: IC50A), > 500 µM; in [4] (setting [12]), > 500 µM. The cytotoxicity entry in series [4] (HT29, normoxia and anoxia, tested concentrations) was “no cytotoxicity”.

On to `NS(=O)(=O)c1ccc(CNC(=O)OCCNC(=O)c2cc([N+](=O)[O-])ccc2N(CCCl)CCCl)cc1` [Compound 3c, 2-(2-(bis(2-chloroethyl)amino)-5-nitrobenzamido) ethyl (4-sulfamoylbenzyl)carbamate], for which the values for the Ki in series [1], in [2] and in [5] (setting [13]) were 0.0837 µM, 0.0887 µM and 2.18 µM, respectively. For the same molecule, the “Selectivity Ratio KI hCA II/KI hCA IX” value in [2] was 0.94. Also, the IC50 in series [3] (setting [10]) was > 500 µM; in series [3] (setting [11]), > 500 µM; in series [4] (HT29, anoxia, read-out: IC50A), > 500 µM; in series [4] (setting [12]) it was > 500 µM.

In the case of `NS(=O)(=O)c1ccc(CCNC(=O)OCc2ccc([N+](=O)[O-])o2)cc1` [Compound 4b, (5-nitrofuran-2-yl)methyl (4-sulfamoylphenethyl) carbamate], the Ki in series [1] is 0.0155 µM; in series [2], 0.0057 µM; in [5] (setting [13]) it was 0.084 µM and 0.0838 µM. In series [2], the “Selectivity Ratio KI hCA II/KI hCA IX” value was determined as 2.72. Also, the “adverse effects on observable phenotypic parameters of the larvae” value in [6] was “adverse effect on hatching, swim bladder development, the utilization of the yolk sac, and the shape of the body and induced pericardial edema”. In [6] (250 μM, at 5 days), the swim bladder development result is listed as “absence of a swim bladder”. The phenotypic defects result in series [6] is “phenotypic defects, such as edema and the absence of a swim bladder”. In [7], the LC50 (as a rule, the concentration that kills 50% of the test population) was ~500 µM. Besides, the “mortality of the larvae” value in series [8] is “significant mortality”.

In the case of `Cc1ncc([N+](=O)[O-])n1CCNS(N)(=O)=O` [DTP348], in series [9], the neurotoxic effect result is “induced a neurotoxic effect” and the swim pattern entry is listed as “ataxic movement pattern”.

Regarding “(5-nitrothiophen-2-yl)methyl(4-sulfamoylphenethyl)carbamate [Compound 5b]”, the Ki in series [1] (read-out: KI hCA II, stopped flow CO2 hydrase assay, mean from 3 different assays) was found to be 0.0198 µM; in series [2] (read-out: KI hCA IX, stopped flow CO2 hydrase assay, mean from 3 different assays), 0.0151 µM; in series [5] (read-out: KI hCA I, mean from 3 different assays), 0.0647 µM. In addition, in [2], the “Selectivity Ratio KI hCA II/KI hCA IX” value was 1.31. Besides, the “adverse effects on observable phenotypic parameters of the larvae” value in series [6] was “adverse effect on hatching, swim bladder development, the utilization of the yolk sac, and the shape of the body and induced pericardial edema”. Besides, the edema result in [6] (as early as 2 days post exposure) was “induced edema”. Besides, the phenotypic defects result in series [6] is “phenotypic defects, such as edema and the absence of a swim bladder”.
